Reference: PMC7316822 (Scientific Reports, 2020)

How the values were obtained:
MARK4 [1] = target: T1, MARK4 (Homo sapiens, UniProt Q96L34); experiment: Steady-state fluorescence quenching binding studies; settings: for Kq (bimolecular quenching rate constant): Kq=Ksv/τ0; for ∆G: van't Hoff equation
T1 construct: made in house
T1 sequence (Q96L34 1-752): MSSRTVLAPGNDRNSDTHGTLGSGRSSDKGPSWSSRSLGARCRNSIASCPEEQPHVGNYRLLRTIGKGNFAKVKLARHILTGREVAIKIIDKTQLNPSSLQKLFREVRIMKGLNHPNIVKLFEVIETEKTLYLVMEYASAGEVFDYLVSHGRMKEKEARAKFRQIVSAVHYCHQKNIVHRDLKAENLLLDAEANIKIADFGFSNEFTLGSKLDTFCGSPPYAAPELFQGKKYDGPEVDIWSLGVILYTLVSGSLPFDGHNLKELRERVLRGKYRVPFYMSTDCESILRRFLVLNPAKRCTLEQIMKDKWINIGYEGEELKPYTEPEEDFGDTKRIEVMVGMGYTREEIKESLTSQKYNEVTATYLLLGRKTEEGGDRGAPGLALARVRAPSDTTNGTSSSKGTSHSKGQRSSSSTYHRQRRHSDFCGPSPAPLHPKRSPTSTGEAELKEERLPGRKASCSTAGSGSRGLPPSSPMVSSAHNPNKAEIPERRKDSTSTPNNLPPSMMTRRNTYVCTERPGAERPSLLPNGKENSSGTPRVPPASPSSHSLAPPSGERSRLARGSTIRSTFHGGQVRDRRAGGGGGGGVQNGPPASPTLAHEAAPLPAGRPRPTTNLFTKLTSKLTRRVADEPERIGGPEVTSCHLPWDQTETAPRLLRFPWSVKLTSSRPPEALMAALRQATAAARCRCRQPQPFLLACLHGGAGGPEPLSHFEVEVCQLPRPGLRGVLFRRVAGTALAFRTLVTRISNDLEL
Description: Fluorescence quenching experiments were carried out on Jasco FP-6200 spectrofluorometer attached with an external water bath which serves as a temperature controller. The experiment was carried out at three different temperatures in triplicates. The protein concentration was kept constant at 4 µM while the ligand was titrated in the ratio of 1:9 at all three temperatures (288 K, 298 K, and 305 K). The fluorescence intensities were corrected for the inner filter effect according to Chi & Liu, 2011[57] the following equation:1 Fcorrected=Fobservede^(Aex+Aobs)/2
Aex and Aobs are the absorption of the system at excitation and emission wavelengths, respectively. The fluorescence intensities were corrected after taking filter effect into account and all the reported spectra are the subtracted spectra taking fluorescence of ligand alone. Fluorescence quenching data was further analyzed employing Stern-Volmer, modified Stern-Volmer and van’t Hoff equation.
To analyze the quenching data, Stern Volmer equation (Eq. 2) was deployed to find the Stern-Volmer constant:2 F0/F=1+Ksv[C] where F0 & F are fluorescence intensity of MARK4 in the absence and presence of RA, [C] is the concentration of RA. Ksv refers to Stern–Volmer constant.
The Ksv value decreases with increasing temperature for static quenching while the opposite effect is observed for dynamic quenching. […] Thus, we can say that the MARK4-RA complex formation is driven by the dynamic mode of quenching. The mode of quenching was further confirmed from the value of bimolecular quenching rate constant, Kq, which was calculated as per Eq. 33 Kq=Ksv/τ0 τo refers to the average integral fluorescence lifetime of tryptophan and is reported to be 2.7 × 10^-9 s.
Further, decrease in fluorescence in the presence of RA was analyzed by modified Stern-Volmer equation (Eq. 4)[63],[64].4 logF0−F/F=logK+nlog[C]
Using van’t Hoff equation (Eq. 5)[65], thermodynamic parameters for ligand-protein interaction such as Gibbs free energy change (∆G), enthalpy change (∆H) and entropy change (∆S) can be calculated.5 ΔG=−RTLnK=ΔH−TΔS K is the binding constant, ∆H is enthalpy change, ∆G is Gibbs free energy change, ∆S is entropy change, and R is the universal gas constant (1.987 cal mol^−1 K^−1). The experimental fitting of data as per Eq. 5 is shown in Fig. 6C […]. The slope of this plot gives the value of -∆H/R, and the intercept giving the value of ∆S/R.“T”.

phosphorylation of tau = experiment: Tau-phosphorylation assay (flow cytometry); assay type: cell-based, human; settings: SH-SY5Y cells, IC50 and 2 × IC50 doses, 48 h, vs untreated cells
Description: To see the effect of RA treatment on the activity of MARK4, Tau-phosphorylation studies were performed as per the previously published protocol. Briefly, SH-SY5Y cells were incubated with IC50 and 2 × IC50 doses of RA. Approximately, 10^6 cells were collected after 48 h treatment, washed with PBS, fixed and incubated with anti-tau antibodies at 25 °C for 2–4 hrs. Following the incubation, cells were washed and analyzed by flow cytometry.

A549 cells = experiment: MTT cell viability, A549; assay type: cell-based, human; settings: A549, 0–200 μM, 72 h
Description: The cytotoxicity studies of selected synthesized compounds were accessed using standard MTT assay[16],[58],[59]. Briefly, 5000–6000 cells/well were plated in 96-well cell culture plate and next day cells were treated with selected compounds (0–200 μM) for 72 h. After 72 h incubation, the culture medium was removed and after washing with phosphate buffer saline (pH 7.4) cells were incubated with MTT solution (a mixture of 100 µl in complete medium and 25 µl of MTT solution taken from 5 mg/ml stock), at 37 °C in the CO2 incubator. Afterward, the resultant formazan crystals were dissolved in 150–200 µl of DMSO and the absorbance of the reaction product was measured at 570 nm using a multiplate ELISA reader (BioRad). The percentage of cell viability was calculated and plotted as a function of RA concentration.

MARK4 [2] = target: T1, MARK4; experiment: Isothermal titration calorimetry; assay type: binding
Description: ITC measurements were done at 25 °C on a VP-ITC microcalorimeter from MicroCal, Inc (GE, MicroCal, USA). The first injection was a false one of 2 s with other injections set at 10 s. The sample cell was filled with MARK4 with reference cell with a reference buffer and a syringe containing 500 µM RA was titrated into MARK4. MicroCal Origin 8.0 was used to analyze the obtained data.

MDA-MB-231 cells [3] = experiment: Cell apoptosis assay (Annexin-V/PI staining); assay type: cell-based, human; settings: 72 h
Description: Apoptosis inducing properties of RA was studied using Annexin-V/PI staining as described previously[58],[60]. In brief, cells were treated with IC50 and 2 × IC50 doses of RA for 72 h at 37 °C, while control cells were treated with cell culture media only or vehicle control. After 72 h incubation, ~1.0–1.5 × 10^6 cells were collected, washed three times with PBS and stained using FITC labeled Annexin-V and PI (BD-Biosciences, USA). Stained cells were analyzed using BD LSR II Flow Cytometry Analyzer and FlowJo.

MARK4 [4] = target: T1, MARK4; experiment: ATPase enzyme inhibition assay (malachite green); assay type: biochemical; settings: RA 0–18 µM, ATP 200 µM, MARK4 4 µM, 25 °C, 1 hour
Description: To see the inhibitory effect of RA on MARK4, an ATPase assay was carried out in the presence of increasing concentrations of RA. Freshly prepared ATP (200 µM) was added to MARK4 (4 µM) and final reaction mixture of 100 μl was incubated at 25 °C for 1 hour. Malachite green (200 μl) was further added to the reaction mixture to stop the reaction followed by incubation of samples at room temperature for 20–25 minutes for the development of color. From the final reaction mixture, 100 μl was transferred to a 96-well plate in triplicates to measure spectrophotometrically at 620 nm.

MDA-MB-231 cells [5] = experiment: MTT cell viability, MDA-MB-231; assay type: cell-based, human; settings: MDA-MB-231, 0–200 μM, 72 h
MARK4 [6] = experiment: MARK4 protein expression by western blot; assay type: cell-based, human; settings: MDA-MB-231 cells, IC50 concentration, 48 h, immunoblotting
Description: MDA-MB-231 vehicle control or RA treated cells were lysed in RIPA cell lysis buffer (Thermo Fisher Scientific, USA). Total protein was isolated and quantified by Bicinchoninic acid assay kit. Approximately 30–40 μg of whole-cell protein was diluted with 6X Laemmli’s buffer, boiled for 3–5 min and resolved using 12% SDS-polyacrylamide electrophoresis under reducing conditions. The resolved polypeptides were transferred to polyvinylidene fluoride (PVDF) membrane using blotting and identified using protein-specific primary antibodies and horseradish peroxidase conjugated secondary antibodies. Luminol was used as a chemiluminescent substrate for HRP[56].

[7] = Binding constant (K), fluorescence quenching studies, temperature not given
[8] = van't Hoff plot, 288, 298 and 305 K

O=c1oc2c(O)c(O)cc3c(=O)oc4c(O)c(O)cc1c4c23 [Ellagic Acid]
Kd (MARK4 [1]; [7]): 9900 µM

COc1cc(/C=C/C(=O)O)ccc1O [Ferulic Acid]
binding constant (K) (MARK4 [1]; fluorescence quenching studies, temperature not given): 50 M⁻¹

O=c1c(O)c(-c2ccc(O)c(O)c2)oc2cc(O)cc(O)c12 [Quercetin]
Kd (MARK4 [1]; [7]): 9760 µM

O=C(/C=C/c1ccc(O)c(O)c1)O[C@H](Cc1ccc(O)c(O)c1)C(=O)O [Rosmarinic acid]
phosphorylation of tau (phosphorylation of tau): decreases phosphorylation of tau
cell growth / viability (A549 cells): significantly inhibited the growth
Kd (MARK4 [2]): 0.227 µM
∆S (MARK4 [2]; ITC, 25 °C): −26.4 cal.mol^−1K^−1
Ksv (Stern-Volmer constant) (MARK4 [1]; 288 K): 11.5 10^5 M^−1
TΔS° (MARK4 [1]; 288 K): -12.0468 kcal/mol
n (number of binding sites) (MARK4 [1]; 288 K): 1.34
Kq (bimolecular quenching rate constant) (MARK4 [1]; 288 K): 4.25 10^14M^-1 s^-1
binding constant (K) (MARK4 [1]; 288 K, double log relation): 5e+06 M⁻¹
∆G (MARK4 [1]; 288 K): -8.956 kcal/mol
Ksv (Stern-Volmer constant) (MARK4 [1]; 298 K): 24.9 10^5 M^−1
TΔS° (MARK4 [1]; 298 K): -12.4651 kcal/mol
n (number of binding sites) (MARK4 [1]; 298 K): 1.22
Kq (bimolecular quenching rate constant) (MARK4 [1]; 298 K): 9.22 10^14M^-1 s^-1
binding constant (K) (MARK4 [1]; 298 K, double log relation): 2e+06 M⁻¹
∆G (MARK4 [1]; 298 K): -8.538 kcal/mol
Ksv (Stern-Volmer constant) (MARK4 [1]; 305 K): 29.4 10^5 M^−1
TΔS° (MARK4 [1]; 305 K): -12.7579 kcal/mol
n (number of binding sites) (MARK4 [1]; 305 K): 1.10
Kq (bimolecular quenching rate constant) (MARK4 [1]; 305 K): 10.88 10^14M^-1 s^-1
binding constant (K) (MARK4 [1]; 305 K, double log relation): 700000 M⁻¹
∆G (MARK4 [1]; 305 K): -8.245 kcal/mol
Kd (MARK4 [1]; [7]): 0.1 µM
Kd (MARK4 [1]; K (binding constant), 288 K, modified Stern-Volmer): 0.2 µM
Kd (MARK4 [1]; K (binding constant), 298 K, modified Stern-Volmer): 0.5 µM
Kd (MARK4 [1]; K (binding constant), 305 K, modified Stern-Volmer): 1.43 µM
∆H (MARK4 [1]; [8]): -21.003 kcal/mol
∆S (MARK4 [1]; [8]): −41.82 calmol^−1K^−1
apoptotic cells (MDA-MB-231 cells [3]; MDA-MB-231, 2 × IC50 concentration): 15.90%
apoptotic cells (MDA-MB-231 cells [3]; MDA-MB-231, IC50 concentration): 9.0%
IC50 (MARK4 [4]): 6.2 µM
cell growth / viability (MDA-MB-231 cells [5]): significantly inhibited the growth
protein expression level of MARK4 (MARK4 [6]): decreases the expression of MARK4

COc1cc(C=O)ccc1O [Vanillin]
Kd (MARK4 [1]; [7]): 6.21 µM
